According to patent US20040062739A1, “Use of carbohydrates to improve skin barrier function” (SOCIETE L'OREAL S.A., priority 2000, published 2004):

Assays:
Type in all cases: biochemical
[1] = system: β-D-glucosidase in the stratum corneum; assay: enzymatic test of stratum corneum glycosidases with PNP chromogenic substrate: β-glucosidase
Description: (§1) In order to determine the nature and importance of the barrier effect of a carbohydrate derivative in accordance with the invention, the influence of O-octanoyl-6′-maltose on glycosidase activity was studied using the following enzymatic test: The assay was carried out in a 96 well plate. A mixture comprising the following was produced: 75μl of a 10 mM solution of specific chromogenic substrate coupled to paranitrophenol (PNP); 10 μl of 700 mM citrate buffer/200 mM sodium phosphate, pH 4.5; 55 μl of a 0.5 M solution of O-octanoyl-6′-maltose [α-D-glucopyannosyl-1-4-D-glucopyranose]; 40 μl of a solution of soluble glycosidases from the stratum corneum. This solution was obtained simply by scratching the forearm into a 70 mM sodium citrate buffer, pH 4.5 containing 1% of Tween 20 and eliminating cell debris by sequential filtering through a membrane with a pore size of 0.45 and of 0.22 μm. The measurements were carried out by quantifying the yellow coloration after incubation at 37° C. for a period in the range 1h30 and 48 hours.

[2] = system: other glycosidases of the stratum corneum; assay: enzymatic test of stratum corneum glycosidases with PNP chromogenic substrate: other glycosidases; settings: FIG. 1; activity relative to value without compound; pH 4.5, 37° C.
Description: as §1

[3] = system: thermostable recombinant glycosidases (Clonezyme); assay: effect on thermostable recombinant glycosidases sold by Clonezyme; settings: FIG. 3; increasing concentrations; 7 glycosidases tested
Description: O-octanoyl-6′-maltose was also tested for its effect on glycosidases sold by Clonezyme.

Compound	effect on β-glucosidase activity of the stratum corneum ([1]; FIG. 1, activity relative to value without compound, pH 4.5, 37° C.)	concentration giving maximum stimulation of β-D-glucosidase activity ([1]; increasing product concentrations, about 40 mM (1%))	effect on the other glycosidases of the stratum corneum [2]	effect on recombinant glycosidases, first group of enzymes [3]	effect on recombinant glycosidases, second group of enzymes [3]	stimulation of recombinant glycosidases, third group of enzymes, of their base activity [3]	stimulation of β-D-glucosidase activity ([1]; different concentrations, FIG. 2)
CCCCCCCC(=O)OC[C@H]1O[C@H](O[C@H]2[C@H](O)[C@@H](O)C(O)O[C@@H]2CO)[C@H](O)[C@@H](O)[C@@H]1O (stereo partly drawn) [O-octanoyl-6′-maltose, O-octanoyl-6′-maltose [α-D-glucopyranosyl-1-4-D-glucopyranose]]	only β-glucosidase had kinetics influenced	about 40 mM	either indifferent to the presence of O-octanoyl-6′-maltose or very slightly inhibited	insensitive	inhibited	up to 400%	–
OC[C@H]1O[C@H](O[C@H]2[C@H](O)[C@@H](O)[C@H](O)O[C@@H]2CO)[C@H](O)[C@@H](O)[C@@H]1O [maltose]	–	–	–	–	–	–	Neither maltose alone nor glucose alone could stimulate β-D-glucosidase activity
